Where two headings read alike, the source gives them in different places.
Tests used:
Assay in all cases: SelectScreen Z-LYTE kinase activity assay (SI Table 6)
Format in all cases: biochemical
[1] = target: protein kinases of the Z-LYTE panel (Homo sapiens, UniProt P80192)
In short: (§1)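 A counterscreen of 133 protein and 7 lipid kinases was run with one compound concentration, 1 μM 1938, in SelectScreen Adapta, Lantha or Z-LYTE assays.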

[2] = target: protein kinases of the Z-LYTE panel (Homo sapiens, UniProt P06493)
In short: as §1

[3] = target: protein kinases of the Z-LYTE panel (Homo sapiens, UniProt Q15418)
In short: as §1

[4] = target: protein kinases of the Z-LYTE panel (Homo sapiens, UniProt Q13464)
In short: as §1

[5] = target: protein kinases of the Z-LYTE panel (Homo sapiens, UniProt P31749)
In short: as §1

[6] = target: protein kinases of the Z-LYTE panel (Homo sapiens, UniProt P54646)
In short: as §1

[7] = target: protein kinases of the Z-LYTE panel (Homo sapiens, UniProt P19784)
In short: as §1

[8] = target: protein kinases of the Z-LYTE panel (Homo sapiens, UniProt P15056); conditions: BRAF, 1000 nM, [ATP] 100 μM
In short: as §1

[9] = target: T1, protein kinases of the Z-LYTE panel (Homo sapiens, UniProt O00141)
T1 sequence (O00141 1-431): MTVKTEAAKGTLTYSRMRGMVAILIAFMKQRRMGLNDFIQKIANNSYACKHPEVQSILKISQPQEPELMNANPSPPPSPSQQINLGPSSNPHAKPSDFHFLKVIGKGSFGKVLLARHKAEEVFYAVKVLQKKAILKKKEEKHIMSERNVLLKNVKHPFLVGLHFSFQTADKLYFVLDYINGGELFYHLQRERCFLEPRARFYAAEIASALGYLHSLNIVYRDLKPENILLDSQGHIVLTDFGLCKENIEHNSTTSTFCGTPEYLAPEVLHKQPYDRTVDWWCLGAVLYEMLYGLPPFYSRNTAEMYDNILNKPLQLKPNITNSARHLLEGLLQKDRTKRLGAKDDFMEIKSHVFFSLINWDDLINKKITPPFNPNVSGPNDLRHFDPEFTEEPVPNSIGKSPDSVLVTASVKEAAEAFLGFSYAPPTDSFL
In short: as §1

[10] = target: protein kinases of the Z-LYTE panel (Homo sapiens, UniProt O75116)
In short: as §1

[11] = target: protein kinases of the Z-LYTE panel (Homo sapiens, UniProt Q9P0L2)
In short: as §1

[12] = target: protein kinases of the Z-LYTE panel (Homo sapiens, UniProt Q05397)
In short: as §1

[13] = target: protein kinases of the Z-LYTE panel (Homo sapiens, UniProt P22607)
In short: as §1

[14] = target: protein kinases of the Z-LYTE panel (Homo sapiens, UniProt Q9UM73)
In short: as §1

[15] = target: protein kinases of the Z-LYTE panel (Homo sapiens, UniProt P21802)
In short: as §1

protein kinases of the Z-LYTE panel (Homo sapiens, UniProt P80192), sequence (P80192 whole entry): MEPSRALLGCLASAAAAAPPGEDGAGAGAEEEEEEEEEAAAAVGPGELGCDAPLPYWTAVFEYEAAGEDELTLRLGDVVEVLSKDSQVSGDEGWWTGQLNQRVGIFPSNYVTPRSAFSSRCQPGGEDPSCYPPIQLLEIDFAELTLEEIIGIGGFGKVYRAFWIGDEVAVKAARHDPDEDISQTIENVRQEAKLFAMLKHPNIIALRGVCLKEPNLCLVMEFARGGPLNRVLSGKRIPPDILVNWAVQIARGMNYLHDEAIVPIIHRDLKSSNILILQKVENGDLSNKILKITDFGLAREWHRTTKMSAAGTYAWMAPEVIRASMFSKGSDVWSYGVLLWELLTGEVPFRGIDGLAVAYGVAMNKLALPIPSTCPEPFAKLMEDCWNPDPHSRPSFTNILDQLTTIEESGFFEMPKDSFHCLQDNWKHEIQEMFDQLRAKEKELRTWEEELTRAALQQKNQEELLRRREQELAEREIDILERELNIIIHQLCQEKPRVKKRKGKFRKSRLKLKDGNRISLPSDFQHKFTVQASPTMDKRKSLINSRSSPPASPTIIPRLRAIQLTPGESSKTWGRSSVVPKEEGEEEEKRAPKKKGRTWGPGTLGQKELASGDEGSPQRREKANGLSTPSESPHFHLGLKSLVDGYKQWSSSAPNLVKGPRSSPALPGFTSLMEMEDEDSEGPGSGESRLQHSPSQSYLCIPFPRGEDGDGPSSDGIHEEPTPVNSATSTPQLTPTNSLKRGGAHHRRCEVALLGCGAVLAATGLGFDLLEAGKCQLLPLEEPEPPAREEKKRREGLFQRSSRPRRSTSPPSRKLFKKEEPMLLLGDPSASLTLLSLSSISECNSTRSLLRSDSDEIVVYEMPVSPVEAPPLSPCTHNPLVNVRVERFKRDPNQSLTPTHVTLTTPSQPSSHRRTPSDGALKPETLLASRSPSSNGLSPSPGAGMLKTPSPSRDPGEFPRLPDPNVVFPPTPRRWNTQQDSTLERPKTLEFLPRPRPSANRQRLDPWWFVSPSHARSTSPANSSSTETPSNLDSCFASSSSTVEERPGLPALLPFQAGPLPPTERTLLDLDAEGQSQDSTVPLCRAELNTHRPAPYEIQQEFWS
protein kinases of the Z-LYTE panel (Homo sapiens, UniProt P19784), sequence (P19784 whole entry): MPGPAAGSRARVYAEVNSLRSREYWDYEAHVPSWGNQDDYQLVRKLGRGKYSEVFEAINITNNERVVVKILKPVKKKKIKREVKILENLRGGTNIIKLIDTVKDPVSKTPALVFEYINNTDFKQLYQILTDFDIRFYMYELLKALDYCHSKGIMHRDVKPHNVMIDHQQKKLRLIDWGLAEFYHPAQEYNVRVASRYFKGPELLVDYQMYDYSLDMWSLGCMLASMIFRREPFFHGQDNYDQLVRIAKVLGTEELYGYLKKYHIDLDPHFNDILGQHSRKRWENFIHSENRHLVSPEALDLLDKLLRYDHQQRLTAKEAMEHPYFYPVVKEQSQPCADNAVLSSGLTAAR
protein kinases of the Z-LYTE panel (Homo sapiens, UniProt P06493), sequence (P06493 whole entry): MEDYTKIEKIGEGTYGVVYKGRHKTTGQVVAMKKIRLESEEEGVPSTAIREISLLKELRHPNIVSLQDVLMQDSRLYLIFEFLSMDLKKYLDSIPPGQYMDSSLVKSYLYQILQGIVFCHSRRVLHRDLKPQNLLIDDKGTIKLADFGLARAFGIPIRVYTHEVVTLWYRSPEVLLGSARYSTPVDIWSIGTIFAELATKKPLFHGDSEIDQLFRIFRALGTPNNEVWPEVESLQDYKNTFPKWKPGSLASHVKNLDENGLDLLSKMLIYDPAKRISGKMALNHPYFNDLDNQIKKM
protein kinases of the Z-LYTE panel (Homo sapiens, UniProt Q9P0L2), sequence (Q9P0L2 whole entry): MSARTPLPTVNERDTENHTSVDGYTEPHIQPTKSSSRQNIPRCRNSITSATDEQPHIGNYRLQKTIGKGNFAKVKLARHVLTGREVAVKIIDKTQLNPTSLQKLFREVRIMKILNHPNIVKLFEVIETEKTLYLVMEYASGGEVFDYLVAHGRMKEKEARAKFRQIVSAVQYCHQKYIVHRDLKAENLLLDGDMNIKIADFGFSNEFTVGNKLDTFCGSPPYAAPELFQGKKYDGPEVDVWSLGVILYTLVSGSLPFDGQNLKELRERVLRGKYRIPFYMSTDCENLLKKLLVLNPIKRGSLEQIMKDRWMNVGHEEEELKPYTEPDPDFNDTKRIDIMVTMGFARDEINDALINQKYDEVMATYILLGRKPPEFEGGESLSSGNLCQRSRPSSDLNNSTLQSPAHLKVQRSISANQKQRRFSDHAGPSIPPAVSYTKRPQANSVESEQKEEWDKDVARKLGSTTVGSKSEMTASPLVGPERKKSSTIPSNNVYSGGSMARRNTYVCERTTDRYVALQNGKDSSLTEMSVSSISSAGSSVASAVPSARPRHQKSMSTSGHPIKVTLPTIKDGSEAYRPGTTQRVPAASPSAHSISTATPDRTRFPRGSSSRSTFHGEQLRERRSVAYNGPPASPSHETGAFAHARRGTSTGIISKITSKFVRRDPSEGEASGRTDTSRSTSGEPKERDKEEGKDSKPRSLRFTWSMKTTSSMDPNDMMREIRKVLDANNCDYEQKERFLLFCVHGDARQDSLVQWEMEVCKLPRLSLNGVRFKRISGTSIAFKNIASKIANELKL
protein kinases of the Z-LYTE panel (Homo sapiens, UniProt P15056), sequence (P15056 whole entry): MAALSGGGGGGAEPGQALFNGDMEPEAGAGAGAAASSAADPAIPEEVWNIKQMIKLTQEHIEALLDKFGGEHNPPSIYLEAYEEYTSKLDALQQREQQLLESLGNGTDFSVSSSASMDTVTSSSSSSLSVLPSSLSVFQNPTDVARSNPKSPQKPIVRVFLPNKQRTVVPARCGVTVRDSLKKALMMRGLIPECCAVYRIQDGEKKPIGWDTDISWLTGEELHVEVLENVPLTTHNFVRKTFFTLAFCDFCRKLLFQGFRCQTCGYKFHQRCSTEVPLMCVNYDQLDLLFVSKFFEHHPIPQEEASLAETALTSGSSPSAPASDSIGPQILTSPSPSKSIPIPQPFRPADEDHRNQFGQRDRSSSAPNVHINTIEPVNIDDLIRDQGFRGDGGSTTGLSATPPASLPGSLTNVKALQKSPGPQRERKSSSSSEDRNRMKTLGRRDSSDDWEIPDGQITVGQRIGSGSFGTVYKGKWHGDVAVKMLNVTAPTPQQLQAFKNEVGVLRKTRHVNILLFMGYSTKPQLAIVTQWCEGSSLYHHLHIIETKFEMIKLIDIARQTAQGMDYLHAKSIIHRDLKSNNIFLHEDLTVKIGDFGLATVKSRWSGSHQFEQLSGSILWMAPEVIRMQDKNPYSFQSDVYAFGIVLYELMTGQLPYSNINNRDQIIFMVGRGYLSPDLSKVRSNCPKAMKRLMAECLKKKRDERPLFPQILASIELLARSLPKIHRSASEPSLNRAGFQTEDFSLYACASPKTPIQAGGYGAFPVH
protein kinases of the Z-LYTE panel (Homo sapiens, UniProt P54646), sequence (P54646 whole entry): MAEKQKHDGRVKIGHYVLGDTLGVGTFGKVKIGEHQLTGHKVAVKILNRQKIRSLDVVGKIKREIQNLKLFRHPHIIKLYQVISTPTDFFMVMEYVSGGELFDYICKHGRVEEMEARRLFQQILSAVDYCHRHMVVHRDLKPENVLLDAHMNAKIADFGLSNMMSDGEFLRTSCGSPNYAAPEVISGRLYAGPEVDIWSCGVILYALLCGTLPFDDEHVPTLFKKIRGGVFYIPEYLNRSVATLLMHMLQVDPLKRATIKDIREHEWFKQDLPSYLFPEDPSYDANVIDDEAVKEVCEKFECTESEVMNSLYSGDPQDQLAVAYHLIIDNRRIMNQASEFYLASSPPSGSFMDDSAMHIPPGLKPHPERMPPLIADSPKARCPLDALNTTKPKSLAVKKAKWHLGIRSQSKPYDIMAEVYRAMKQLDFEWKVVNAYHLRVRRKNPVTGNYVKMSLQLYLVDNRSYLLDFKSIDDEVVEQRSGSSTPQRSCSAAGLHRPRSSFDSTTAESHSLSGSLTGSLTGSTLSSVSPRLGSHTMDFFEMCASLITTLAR
protein kinases of the Z-LYTE panel (Homo sapiens, UniProt P22607), sequence (P22607 23-806): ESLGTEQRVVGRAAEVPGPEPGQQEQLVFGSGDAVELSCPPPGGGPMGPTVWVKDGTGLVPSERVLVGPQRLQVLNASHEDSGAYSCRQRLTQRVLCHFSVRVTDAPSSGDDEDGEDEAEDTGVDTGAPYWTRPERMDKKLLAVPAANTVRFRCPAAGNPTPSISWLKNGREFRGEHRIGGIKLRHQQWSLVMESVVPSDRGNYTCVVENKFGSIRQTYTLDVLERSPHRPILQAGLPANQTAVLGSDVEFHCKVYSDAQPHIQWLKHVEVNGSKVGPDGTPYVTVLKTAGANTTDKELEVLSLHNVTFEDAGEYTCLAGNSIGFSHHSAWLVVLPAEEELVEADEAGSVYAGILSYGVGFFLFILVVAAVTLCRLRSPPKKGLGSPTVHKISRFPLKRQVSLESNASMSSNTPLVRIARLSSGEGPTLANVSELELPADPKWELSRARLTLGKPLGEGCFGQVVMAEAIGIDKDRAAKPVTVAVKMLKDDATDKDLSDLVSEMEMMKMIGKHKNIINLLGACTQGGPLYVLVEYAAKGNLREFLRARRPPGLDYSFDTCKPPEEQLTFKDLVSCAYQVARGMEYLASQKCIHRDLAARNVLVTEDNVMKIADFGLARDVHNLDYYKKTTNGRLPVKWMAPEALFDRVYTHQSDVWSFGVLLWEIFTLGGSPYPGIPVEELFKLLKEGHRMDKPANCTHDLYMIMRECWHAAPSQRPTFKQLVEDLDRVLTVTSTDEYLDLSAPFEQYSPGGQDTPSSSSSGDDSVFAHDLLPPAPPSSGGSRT

CCN1CCN(c2ccc(Nc3cc(Nc4cccc5c4N(C(C)=O)CC5)ccn3)cc2)CC1 [Compound 1938]
inhibition at 1 µM ([1]; read-out: % Inhibition Point 1): 6.46% | inhibition at 1 µM ([1]; read-out: % Inhibition Point 2): 4% | inhibition at 1 µM ([1]; read-out: % Inhibition mean): 5% | inhibition at 1 µM ([2]; read-out: % Inhibition Point 1): 5.46% | inhibition at 1 µM ([2]; read-out: % Inhibition Point 2): 3.74% | inhibition at 1 µM ([2]; read-out: % Inhibition mean): 4.6% | inhibition at 1 µM ([3]; read-out: % Inhibition Point 1): 6% | inhibition at 1 µM ([3]; read-out: % Inhibition Point 2): 5.47% | inhibition at 1 µM ([3]; read-out: % Inhibition mean): 6% | inhibition at 1 µM ([4]; read-out: % Inhibition Point 1): 0.45% | inhibition at 1 µM ([4]; read-out: % Inhibition Point 2): 0.0147% | inhibition at 1 µM ([4]; read-out: % Inhibition mean): 0.233% | inhibition at 1 µM ([5]; read-out: % Inhibition Point 1): 4.32% | inhibition at 1 µM ([5]; read-out: % Inhibition Point 2): 3.3% | inhibition at 1 µM ([5]; read-out: % Inhibition mean): 4% | inhibition at 1 µM ([6]; read-out: % Inhibition Point 1): 8% | inhibition at 1 µM ([6]; read-out: % Inhibition Point 2): 7% | inhibition at 1 µM ([6]; read-out: % Inhibition mean): 8% | inhibition at 1 µM ([7]; read-out: % Inhibition Point 1): 0.87% | inhibition at 1 µM ([7]; read-out: % Inhibition Point 2): 2.67% | inhibition at 1 µM ([7]; read-out: % Inhibition mean): 1.77% | inhibition at 1 µM ([8]; read-out: % Inhibition Point 1): 13% | inhibition at 1 µM ([8]; read-out: % Inhibition Point 2): 12% | inhibition at 1 µM ([8]; read-out: % Inhibition mean): 13% | inhibition at 1 µM ([9]; read-out: % Inhibition Point 1): 4.46% | inhibition at 1 µM ([9]; read-out: % Inhibition Point 2): 3.55% | inhibition at 1 µM ([9]; read-out: % Inhibition mean): 4% | inhibition at 1 µM ([10]; read-out: % Inhibition Point 1): 1.58% | inhibition at 1 µM ([10]; read-out: % Inhibition Point 2): 0.0356% | inhibition at 1 µM ([10]; read-out: % Inhibition mean): 0.807% | inhibition at 1 µM ([11]; read-out: % Inhibition Point 1): 5.55% | inhibition at 1 µM ([11]; read-out: % Inhibition Point 2): 3.46% | inhibition at 1 µM ([11]; read-out: % Inhibition mean): 4.5% | inhibition at 1 µM ([12]; read-out: % Inhibition Point 1): 47% | inhibition at 1 µM ([12]; read-out: % Inhibition Point 2): 47% | inhibition at 1 µM ([12]; read-out: % Inhibition mean): 47% | inhibition at 1 µM ([13]; read-out: % Inhibition Point 1): 6% | inhibition at 1 µM ([13]; read-out: % Inhibition Point 2): 6% | inhibition at 1 µM ([13]; read-out: % Inhibition mean): 6% | inhibition at 1 µM ([14]; read-out: % Inhibition Point 1): 11% | inhibition at 1 µM ([14]; read-out: % Inhibition Point 2): 15% | inhibition at 1 µM ([14]; read-out: % Inhibition mean): 13% | inhibition at 1 µM ([15]; read-out: % Inhibition Point 1): 13% | inhibition at 1 µM ([15]; read-out: % Inhibition Point 2): 16% | inhibition at 1 µM ([15]; read-out: % Inhibition mean): 14%

Source: article PMC7614683, “A small molecule PI3Kα activator for cardioprotection and neuroregeneration” (Nature, 2023)
